# Structures can show the parent of a compound that is named as a salt. Where two headings read alike, the source gives them in different places.
# How the values were obtained:
# Format in all cases: cell-based, rat
# [1] = tested on: LPS-induced microglia activation; test: Image-based assay of LPS-induced microglia activation (HTS and dose response)
# [2] = tested on: fibrin- and LPS-induced microglia activation; test: cells
# [3] = tested on: fibrin-induced microglia activation; test: Image-based assay of fibrin-induced microglia activation (HTS and dose response); conditions: for inhibition at 10 µM / IC50: Rattus norvegicus, Microglia; for inhibition at 10 µM: read-out: Fibrin % inhibition; for IC50: Table 7, read-out: fib_IC50
# [4] = Rattus norvegicus, Microglia, primary microglia HTS, 10 μM, LPS-stimulated, cell size >800 μm^2 as marker of activation; read-out: LPS % inhibition
# [5] = HTS of 1907 compounds, quadrant by fibrin and LPS inhibition
# [6] = primary microglia HTS, 10 μM, fibrin-stimulated, cell size >800 μm^2 as marker of activation
# [7] = classification by fibrin and LPS inhibition in HTS
# [8] = primary microglia HTS, fibrin stimulation, cell size >800 μm2 as marker of activation
# [9] = primary microglia HTS, LPS stimulation, compounds at 10 μM
# [10] = classification by fibrin and LPS inhibition, HTS at 10 μM
# [11] = primary microglia HTS, fibrin stimulation, compounds at 10 μM
# [12] = Rattus norvegicus, Microglia, read-out: LPS % inhibition
# [13] = Rattus norvegicus, Microglia, Table 7; read-out: LPS_IC50
# [14] = Table 7, fib = fibrin, LPS, tox = toxicity
# [15] = Rattus norvegicus, Microglia, 48 h, primary microglia HTS, LPS stimulation; increased cell size (>800 μm^2) as marker of activation; read-out: LPS % inhibition
# [16] = quadrant by fibrin and LPS inhibition in HTS of 1907 compounds
# [17] = primary microglia HTS, fibrin stimulation, increased cell size (>800 μm^2) as marker of activation
# [18] = Rattus norvegicus, Microglia, 48 h, read-out: LPS % inhibition
# [19] = Rattus norvegicus, Microglia, primary microglia HTS, LPS stimulation, compounds at 10 μM; read-out: LPS % inhibition
# [20] = quadrant by fibrin and LPS inhibition, HTS at 10 μM
# [21] = Rattus norvegicus, Microglia, 48 h; read-out: LPS % inhibition
compound,measurement,setting,value
CCC(=O)O[C@H]1CC[C@H]2[C@@H]3CCC4=CC(=O)CC[C@]4(C)[C@H]3CC[C@]12C [Testosterone Propionate],inhibition at 10 µM,[1]; [4],8%
same,Quadrant (FIG. 5b),[2]; [5],Q4
same,inhibition at 10 µM,[3]; [6],21%
Spiramycin,LPS % inhibition,[1],14%
same,Quadrant (FIG. 5b),[2]; [7],Q4
same,Fibrin % inhibition,[3]; [8],17%
C=C(C)[C@H]1CC=C(C)CC1 [D-limonene],LPS % inhibition,[1]; [9],11%
same,Quadrant (FIG. 5b),[2]; [10],Q4
same,Fibrin % inhibition,[3]; [11],−19%
CN1C(=O)CN=C(c2ccccc2)c2cc(Cl)ccc21 [Diazepam],inhibition at 10 µM,[1]; [12],5%
same,Quadrant (FIG. 5b),[2],Q4
same,inhibition at 10 µM,[3],-19%
O=C1O[C@H]([C@@H](O)CO)C(O)=C1O [Vitamin C],LPS % inhibition,"[1]; primary microglia HTS, 10 μM, LPS-stimulated, cell size >800 μm^2 as marker of activation",18%
same,Quadrant (FIG. 5b),[2]; [5],Q4
same,Fibrin % inhibition,[3]; [6],−28%
C[C@@H]1CCC[C@H](C)N1NC(=O)c1ccc(Cl)c(S(N)(=O)=O)c1 [clopamide],IC50,[1]; [13],0.002 µM
same,Activity,[2]; [14],fib/LPS
same,IC50,[3],0.003 µM
CC(C)n1c(/C=C/C(O)CC(O)CC(=O)O)c(-c2ccc(F)cc2)c2ccccc21 (stereo not drawn) [Fluvastatin],inhibition at 10 µM,[1]; [15],101%
same,Quadrant (FIG. 5b),[2]; [16],Q2
same,inhibition at 10 µM,[3]; [17],110%
C[C@]12CCC(=O)C=C1CC[C@@H]1[C@@H]2C(=O)C[C@@]2(C)[C@H]1CC[C@]2(O)C(=O)CO [Cortisone],LPS % inhibition,"[1]; primary HTS, 10 μM, LPS-stimulated primary microglia",44%
same,Quadrant (FIG. 5b),"[2]; primary HTS, 10 μM",Q4
same,Fibrin % inhibition,"[3]; primary HTS, 10 μM, fibrin-stimulated primary microglia",37%
CC(C)[N+]1(C)[C@@H]2CC[C@H]1CC(OC(=O)C(CO)c1ccccc1)C2.[Br-] (stereo partly drawn) [Ipratropium Bromide],LPS % inhibition,[1],8%
same,Quadrant (FIG. 5b),[2],Q4
same,Fibrin % inhibition,[3],6%
CC/C(=C(\c1ccccc1)c1ccc(OCCN(C)C)cc1)c1ccccc1 [Tamoxifen],inhibition at 10 µM,[1]; [12],5%
same,Quadrant (FIG. 5b),[2],Q4
same,inhibition at 10 µM,[3],14%
O=C(CCBr)N1CCN(C(=O)CCBr)CC1 [Pipobroman],inhibition at 10 µM,[1]; [18],0%
same,Quadrant (FIG. 5b),[2],Q4
same,inhibition at 10 µM,[3],-28%
C[C@]12CC[C@@H]3c4ccc(O)cc4CC[C@H]3[C@@H]1C[C@@H](O)[C@@H]2O [Estriol],LPS % inhibition,[1]; 10 µM,16%
same,inhibition at 10 µM,[1]; [12],8%
same,Quadrant (FIG. 5b),[2],Q4
same,inhibition at 10 µM,[3],-17%
O=C(O)COCCN1CCN([C@H](c2ccccc2)c2ccc(Cl)cc2)CC1 [Levocetirizine Dihydrochloride],inhibition at 10 µM,[1]; [18],-2%
same,Quadrant (FIG. 5b),[2],Q4
same,inhibition at 10 µM,[3],-44%
C#CC1(O)CC[C@H]2[C@@H]3CCC4=CC(=O)CC[C@@H]4[C@H]3CC[C@@]21CC (stereo partly drawn) [Norgestrel],inhibition at 10 µM,[1]; [15],22%
same,Quadrant (FIG. 5b),[2]; [16],Q4
same,inhibition at 10 µM,[3]; [17],4%
CC1=C(/C=C/C(C)=C/C=C/C(C)=C/C=C/C=C(C)/C=C/C=C(C)/C=C/C2=C(C)CCCC2(C)C)C(C)(C)CCC1 [Beta-carotene],inhibition at 10 µM,[1]; [12],-3%
same,Quadrant (FIG. 5b),[2],Q4
same,inhibition at 10 µM,[3],-15%
CC(=O)OCC(=O)[C@@]1(O)CC[C@H]2[C@@H]3C[C@H](C)C4=CC(=O)C=C[C@]4(C)[C@H]3[C@@H](O)C[C@@]21C [6alpha-methylprednisolone acetate],LPS specificity,[1],1.0
same,LPS_HS,[1],−0.40
same,Activity,[2],fib/LPS
same,fib specificity,[3],1.0
same,fib_HS,[3],−0.26
CCC1=C[C@@H]2CN(C1)Cc1c([nH]c3ccccc13)[C@@](C(=O)OC)(c1cc3c(cc1OC)N(C)[C@H]1[C@@](O)(C(=O)OC)[C@H](OC(C)=O)[C@]4(CC)C=CCN5CC[C@]31[C@@H]54)C2 [Vinorelbine],inhibition at 10 µM,[1]; [4],-11%
same,inhibition at 10 µM,[1]; [19],106%
same,Quadrant (FIG. 5b),[2]; [5],Q4
same,Quadrant (FIG. 5b),[2]; [20],Q2
same,inhibition at 10 µM,[3]; [6],-12%
same,inhibition at 10 µM,[3]; [11],108%
Cc1cnc(C(=O)NCCc2ccc(S(=O)(=O)NC(=O)NC3CCCCC3)cc2)cn1 [Glipizide],inhibition at 10 µM,[1]; [18],18%
same,Quadrant (FIG. 5b),[2],Q4
same,inhibition at 10 µM,[3],12%
O=C(O)Cc1ccccc1Nc1c(Cl)cccc1Cl [Diclofenac],inhibition at 10 µM,[1]; [19],12%
same,Quadrant (FIG. 5b),[2]; [10],Q4
same,inhibition at 10 µM,[3]; [11],-27%
C[C@H]1O[C@H](O[C@H]2[C@H](O)[C@@H](O)[C@@H](O[C@H]3[C@H](O)[C@@H](O)C(O)O[C@@H]3CO)O[C@@H]2CO)[C@H](O)[C@@H](O)[C@@H]1N[C@H]1C=C(CO)[C@@H](O)[C@H](O)[C@H]1O (stereo partly drawn) [Acarbose],inhibition at 10 µM,[1]; [15],62%
same,inhibition at 10 µM,[1]; [19],-5%
same,Quadrant (FIG. 5b),[2]; [16],Q2
same,Quadrant (FIG. 5b),[2]; [20],Q4
same,inhibition at 10 µM,[3]; [11],-22%
same,inhibition at 10 µM,[3]; [17],81%
NCCCC(O)(P(=O)(O)O)P(=O)(O)O [Alendronic acid],inhibition at 10 µM,[1]; [12],18%
same,Quadrant (FIG. 5b),[2],Q4
same,inhibition at 10 µM,[3],5%
CN[C@@H](C)[C@@H](O)c1ccccc1 [Pseudoephedrine],inhibition at 10 µM,[1]; [21],5%
same,Quadrant (FIG. 5b),[2]; [7],Q4
same,inhibition at 10 µM,[3]; [8],-13%
CN1CCc2cccc3c2[C@H]1Cc1ccc(O)c(O)c1-3 [Apomorphine Hydrochloride],inhibition at 10 µM,[1]; [12],-4%
same,Quadrant (FIG. 5b),[2],Q4
same,inhibition at 10 µM,[3],11%
C#C[C@]1(O)CC[C@H]2[C@@H]3CCC4=C(CCC(=O)C4)[C@H]3CC[C@@]21C [Norethynodrel],inhibition at 10 µM,[1]; [18],10%
same,Quadrant (FIG. 5b),[2],Q4
same,inhibition at 10 µM,[3],1%
CC(=O)Oc1c(C)c(C)c2c(c1C)CCC(C)(CCCC(C)CCCC(C)CCCC(C)C)O2 (stereo not drawn) [Alpha-tochopheryl Acetate],LPS % inhibition,[1]; [9],8%
same,Quadrant (FIG. 5b),[2]; [20],Q4
same,Fibrin % inhibition,[3]; [11],22%
Cc1nc(Nc2ncc(C(=O)Nc3c(C)cccc3Cl)s2)cc(N2CCN(CCO)CC2)n1 [Dasatinib],inhibition at 10 µM,[1]; [15],70%
same,Quadrant (FIG. 5b),[2]; [16],Q2
same,inhibition at 10 µM,[3]; [17],109%
N=C(N)NCCN1CCCCCCC1 [Guanethidine],inhibition at 10 µM,[1]; [18],12%
same,Quadrant (FIG. 5b),[2],Q4
same,inhibition at 10 µM,[3],-44%
COc1ccc2cc([C@H](C)C(=O)O)ccc2c1 [Naproxen],inhibition at 10 µM,[1]; [18],15%
same,Quadrant (FIG. 5b),[2],Q4
same,inhibition at 10 µM,[3],-25%
C[C@]12CC[C@H]3[C@@H](CCC4=CC(=O)CC[C@@]43C)[C@@H]1CC[C@@H]2O [Testosterone],inhibition at 10 µM,[1]; [12],5%
same,Quadrant (FIG. 5b),[2],Q4
same,inhibition at 10 µM,[3],-1%
CC(N/C(=N\C#N)Nc1ccncc1)C(C)(C)C (stereo not drawn) [Pinacidil],inhibition at 10 µM,[1]; [21],26%
same,Quadrant (FIG. 5b),[2]; [7],Q4
same,inhibition at 10 µM,[3]; [8],15%
CO[C@@H]1C[C@@H](C[C@H]2CC[C@H](C)[C@H]([C@@H](C)C(=O)O)O2)O[C@]2(O[C@](C)([C@H]3CC[C@@](C)([C@@H]4O[C@@H]([C@H]5O[C@@](O)(CO)[C@H](C)C[C@@H]5C)C[C@@H]4C)O3)C[C@H]2C)[C@@H]1C [nigericin sodium],IC50,[1]; [13],0.065 µM
same,Activity,[2]; [14],fib/LPS
same,IC50,[3],0.206 µM
CC1=C(C(=O)O)N2C(=O)[C@@H](NC(=O)[C@H](N)c3ccccc3)[C@H]2SC1 [Cephalexin],inhibition at 10 µM,[1]; [12],17%
same,Quadrant (FIG. 5b),[2],Q4
same,inhibition at 10 µM,[3],-1%
O=C(O)COCCN1CCN(C(c2ccccc2)c2ccc(Cl)cc2)CC1 (stereo not drawn) [Cetirizine],inhibition at 10 µM,[1]; [12],0%
same,Quadrant (FIG. 5b),[2],Q4
same,inhibition at 10 µM,[3],5%

# Reference: US20210330611A1, “THERAPY FOR NEUROLOGICAL DISEASES/DISORDERS” (priority 2020, published 2021)
